Test results: patent publication US9504746B2, “Pharmaceutical compositions of 4-(3-chloro-4-(cyclopropylaminocarbonyl)aminophenoxy)-7-methoxy-6-quinolinecarboxamide” (Eisai R&D Management Co., Ltd., priority 2004, dated 2016)

Experiment: pH of 5% (w/w) aqueous solution or suspension of additive
Format: physicochemical
Conditions: 5% (w/w) aqueous solution or suspension of the additive itself

Structure (SMILES)	pH value of 5% (w/w) aqueous solution or suspension
O=C([O-])O.[Na+] [NaHCO3, Sodium hydrogencarbonate]	8.15
O=P([O-])([O-])O.[K+].[K+] [Example K2HPO4, Dipotassium hydrogenphosphate]	9.11
O=C1O[C@H](CO)[C@@H](O)[C@H](O)[C@H]1O [δ-Gluconolactone]	2.40
[Na+].[OH-] [NaOH, Sodium hydroxide]	13.56
O=P([O-])([O-])O.[Na+].[Na+] [Na2HPO4, Disodium hydrogenphosphate]	9.26
NCC(=O)O [Glycine]	6.17
CC(=O)[O-].[Na+] [Sodium acetate]	8.46
O=C([O-])CC(O)(CC(=O)[O-])C(=O)[O-].[Na+].[Na+].[Na+] [Sodium citrate]	8.22
O=C([O-])[O-].[Na+].[Na+] [Na2CO3, Sodium carbonate]	11.45
[O]=[Mg] [MgO, Magnesium oxide]	10.63
